We go through five molecules from paper PMC7333355, “Functional and Regulatory Characterization of Three AMTs in Maize Roots” (Frontiers in Plant Science, 2020).

The target of one series is T1, ZmAMT1.3 (Zea mays, UniProt B4F978).
T1 construct: full-length cDNA from maize root RNA in pCI vector, expressed in Xenopus laevis oocytes; no tag stated
T1 sequence (B4F978 1-488): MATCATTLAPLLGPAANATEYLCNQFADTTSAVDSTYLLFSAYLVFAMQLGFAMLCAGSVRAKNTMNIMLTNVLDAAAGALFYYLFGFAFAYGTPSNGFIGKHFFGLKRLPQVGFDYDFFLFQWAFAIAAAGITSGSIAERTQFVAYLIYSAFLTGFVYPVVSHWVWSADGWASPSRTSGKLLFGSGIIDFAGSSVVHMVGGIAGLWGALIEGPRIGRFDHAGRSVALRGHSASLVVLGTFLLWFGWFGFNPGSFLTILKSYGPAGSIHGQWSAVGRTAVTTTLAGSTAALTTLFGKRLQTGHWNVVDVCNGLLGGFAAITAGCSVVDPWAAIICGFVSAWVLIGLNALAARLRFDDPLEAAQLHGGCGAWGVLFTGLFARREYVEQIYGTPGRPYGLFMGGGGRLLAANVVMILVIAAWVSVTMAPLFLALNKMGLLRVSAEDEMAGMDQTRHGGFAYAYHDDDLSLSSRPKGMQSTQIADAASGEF
In words: two-electrode voltage clamp, Xenopus oocytes, inhibition of ammonium-induced current. Type of series: cell-based. Particulars: read-out: % inhibition at 10 mM. For orientation: Two-electrode voltage clamp is typically applied to oocytes expressing channels or transporters.

In another series the target is T2, ZmAMT1.1a (Zea mays, UniProt B4FRK2).
T2 construct: full-length cDNA from maize root RNA in pCI vector, expressed in Xenopus laevis oocytes; no tag stated
T2 sequence (B4FRK2 1-498): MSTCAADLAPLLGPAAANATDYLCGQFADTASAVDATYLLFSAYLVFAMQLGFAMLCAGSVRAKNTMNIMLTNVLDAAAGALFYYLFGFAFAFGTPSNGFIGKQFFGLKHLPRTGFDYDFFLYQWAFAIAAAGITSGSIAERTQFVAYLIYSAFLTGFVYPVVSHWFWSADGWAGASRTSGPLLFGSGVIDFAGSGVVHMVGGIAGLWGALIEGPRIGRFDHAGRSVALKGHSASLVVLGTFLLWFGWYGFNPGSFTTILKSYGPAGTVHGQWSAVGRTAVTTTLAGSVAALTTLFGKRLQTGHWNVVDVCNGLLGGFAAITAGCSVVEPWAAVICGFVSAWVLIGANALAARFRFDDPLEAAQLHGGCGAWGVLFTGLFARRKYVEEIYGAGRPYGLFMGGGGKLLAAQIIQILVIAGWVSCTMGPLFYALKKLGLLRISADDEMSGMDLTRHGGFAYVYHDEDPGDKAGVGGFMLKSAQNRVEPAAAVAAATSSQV
The description is as above. Type of series: cell-based. As to conditions: read-out: % inhibition at 10 mM.

A further series concerns the target T3, ZmAMT1.1b (Zea mays, UniProt B4FV06).
T3 construct: full-length cDNA from maize root RNA in pCI vector, expressed in Xenopus laevis oocytes; no tag stated
T3 sequence (B4FV06 1-489): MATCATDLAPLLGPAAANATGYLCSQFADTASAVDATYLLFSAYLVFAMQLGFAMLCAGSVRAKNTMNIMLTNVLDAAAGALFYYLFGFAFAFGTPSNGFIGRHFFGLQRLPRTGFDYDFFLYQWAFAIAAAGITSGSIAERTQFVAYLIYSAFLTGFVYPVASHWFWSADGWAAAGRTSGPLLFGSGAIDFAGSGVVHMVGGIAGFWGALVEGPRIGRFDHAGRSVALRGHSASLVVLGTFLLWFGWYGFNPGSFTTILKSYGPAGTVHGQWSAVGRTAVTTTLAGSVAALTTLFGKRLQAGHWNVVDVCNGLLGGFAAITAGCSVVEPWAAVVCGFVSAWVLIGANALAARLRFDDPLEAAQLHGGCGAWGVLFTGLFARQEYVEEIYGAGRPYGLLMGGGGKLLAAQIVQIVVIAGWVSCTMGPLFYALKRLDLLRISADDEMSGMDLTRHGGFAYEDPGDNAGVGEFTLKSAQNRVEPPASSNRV
The description is as above. It counts as cell-based. Particulars: read-out: % inhibition at 10 mM.

In the next series the target is T4, AtAMT1;3 (Arabidopsis thaliana, UniProt Q9SQH9).
T4 construct: gene AMT1-3
T4 sequence (Q9SQH9 whole entry): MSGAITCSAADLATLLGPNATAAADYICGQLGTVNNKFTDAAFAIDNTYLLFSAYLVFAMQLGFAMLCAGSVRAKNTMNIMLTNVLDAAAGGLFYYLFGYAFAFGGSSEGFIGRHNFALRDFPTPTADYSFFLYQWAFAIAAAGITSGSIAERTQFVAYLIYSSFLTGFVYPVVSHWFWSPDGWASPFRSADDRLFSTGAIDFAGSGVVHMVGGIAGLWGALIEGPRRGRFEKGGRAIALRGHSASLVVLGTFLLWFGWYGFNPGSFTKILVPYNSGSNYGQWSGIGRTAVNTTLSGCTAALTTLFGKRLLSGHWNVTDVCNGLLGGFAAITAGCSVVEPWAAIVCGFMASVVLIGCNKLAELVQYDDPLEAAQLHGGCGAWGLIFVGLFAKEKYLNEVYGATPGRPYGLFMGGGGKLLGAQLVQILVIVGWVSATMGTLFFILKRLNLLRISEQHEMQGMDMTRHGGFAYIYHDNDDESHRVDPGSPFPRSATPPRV
As to conditions: 1 mM ammonium chloride.

Substrate in series [1]: N
As to the kind of experiment: cells, lysate or membranes. As to conditions: added as chloride.

Substrate in series [2]: CN
As to the kind of experiment: two-electrode voltage clamp, Xenopus oocytes, Michaelis-Menten fit of induced currents. It counts as cell-based, Zea mays. As to conditions: pH 7.4, -140 mV, added as chloride.

Turning to `NC(=O)CC[C@H](N)C(=O)O` [glutamine], the inhibition at 10000 µM at ZmAMT1.3 came to 55.4%; at ZmAMT1.1a, 69.9%; on ZmAMT1.1b, 67.5%.
Consider `N` [ammonium], for which the “two-electrode voltage clamp, Xenopus oocytes, induced current” value at AtAMT1;3 was “Significant ammonium-induced currents were detected in AtAMT1;3-expressing oocytes”.

B1: ZmAMT1.1b (Zea mays) (protein)
chain: MATCATDLAPLLGPAAANATGYLCSQFADTASAVDATYLLFSAYLVFAMQLGFAMLCAGSVRAKNTMNIMLTNVLDAAAGALFYYLFGFAFAFGTPSNGFIGRHFFGLQRLPRTGFDYDFFLYQWAFAIAAAGITSGSIAERTQFVAYLIYSAFLTGFVYPVASHWFWSADGWAAAGRTSGPLLFGSGAIDFAGSGVVHMVGGIAGFWGALVEGPRIGRFDHAGRSVALRGHSASLVVLGTFLLWFGWYGFNPGSFTTILKSYGPAGTVHGQWSAVGRTAVTTTLAGSVAALTTLFGKRLQAGHWNVVDVCNGLLGGFAAITAGCSVVEPWAAVVCGFVSAWVLIGANALAARLRFDDPLEAAQLHGGCGAWGVLFTGLFARQEYVEEIYGAGRPYGLLMGGGGKLLAAQIVQIVVIAGWVSCTMGPLFYALKRLDLLRISADDEMSGMDLTRHGGFAYEDPGDNAGVGEFTLKSAQNRVEPPASSNRV
As for B1, in series [1] (pH 7.4, -140 mV (potential inferred from Figure 2D range)), the Km stood at 15.6 µM.

B2: ZmAMT1.3 (Zea mays) (protein)
chain: MATCATTLAPLLGPAANATEYLCNQFADTTSAVDSTYLLFSAYLVFAMQLGFAMLCAGSVRAKNTMNIMLTNVLDAAAGALFYYLFGFAFAYGTPSNGFIGKHFFGLKRLPQVGFDYDFFLFQWAFAIAAAGITSGSIAERTQFVAYLIYSAFLTGFVYPVVSHWVWSADGWASPSRTSGKLLFGSGIIDFAGSSVVHMVGGIAGLWGALIEGPRIGRFDHAGRSVALRGHSASLVVLGTFLLWFGWFGFNPGSFLTILKSYGPAGSIHGQWSAVGRTAVTTTLAGSTAALTTLFGKRLQTGHWNVVDVCNGLLGGFAAITAGCSVVDPWAAIICGFVSAWVLIGLNALAARLRFDDPLEAAQLHGGCGAWGVLFTGLFARREYVEQIYGTPGRPYGLFMGGGGRLLAANVVMILVIAAWVSVTMAPLFLALNKMGLLRVSAEDEMAGMDQTRHGGFAYAYHDDDLSLSSRPKGMQSTQIADAASGEF
As to B2, the Km in series [1] (pH 7.4, -140 mV (potential inferred from Figure 3D range)) turned out to be 18.6 ± 2.8 µM.

B3: ZmAMT1.1a (Zea mays) (protein)
chain: MSTCAADLAPLLGPAAANATDYLCGQFADTASAVDATYLLFSAYLVFAMQLGFAMLCAGSVRAKNTMNIMLTNVLDAAAGALFYYLFGFAFAFGTPSNGFIGKQFFGLKHLPRTGFDYDFFLYQWAFAIAAAGITSGSIAERTQFVAYLIYSAFLTGFVYPVVSHWFWSADGWAGASRTSGPLLFGSGVIDFAGSGVVHMVGGIAGLWGALIEGPRIGRFDHAGRSVALKGHSASLVVLGTFLLWFGWYGFNPGSFTTILKSYGPAGTVHGQWSAVGRTAVTTTLAGSVAALTTLFGKRLQTGHWNVVDVCNGLLGGFAAITAGCSVVEPWAAVICGFVSAWVLIGANALAARFRFDDPLEAAQLHGGCGAWGVLFTGLFARRKYVEEIYGAGRPYGLFMGGGGKLLAAQIIQILVIAGWVSCTMGPLFYALKKLGLLRISADDEMSGMDLTRHGGFAYVYHDEDPGDKAGVGGFMLKSAQNRVEPAAAVAAATSSQV
notes: full-length cDNA from maize root RNA in pCI vector, expressed in Xenopus laevis oocytes; no tag stated
As to B3, the Km in series [1] (pH 7.4, -140 mV) was 9.9 ± 1.9 µM; in series [2] it was 1900 ± 400 µM.

In general, inhibition refers to the drop in the measured response relative to a control, in per cent. By Km is commonly meant the substrate concentration at which the rate is half of its maximum.
